Experimental data from patent publication US8796201B2 (The Board of Trustees of the Leland Stanford Junior …, priority 2002, dated 2014).
Entries after “also recorded” stand apart in the source; their conditions may differ. Each block holds one molecule with its values, some of them ahead of it. Where no end group is shown, it is not given here.

How the values were obtained:
[1] = system: DPP IV from Aspergillus fumigatus; assay: rat BBM with exogenous DPP IV from Aspergillus fumigatus (0.28 μU DPP IV/ng BBM protein); settings: 37° C., up to four hours
[2] = system: carboxypeptidase A (C-0261, Sigma) and/or leucine aminopeptidase (L-5006, Sigma); assay: 10 μg/ml carboxypeptidase A and/or 5.9 μg/ml leucine aminopeptidase; settings: 37° C., up to 160 min
[3] = system: prolyl endopeptidase (PEP, specific activity 28 μU/pg) from Flavobacterium meningosepticum (US Biological, MA); assay: 27 ng/μl brush border membranes with exogenous prolyl endopeptidase from Flavobacterium meningosepticum; settings: rat, up to one hour
EPB2 = target: T1, EPB2 (Hordeum vulgare, UniProt P25250); assay: Inhibition of EPB2 α2-gliadin digestion; format: biochemical, barley (Hordeum vulgare subsp. vulgare)
T1 construct: made in house; host or cells: E. coli BL21, plasmid pMTB1 (pET28b), inclusion bodies solubilised in 7 M urea
Excerpt: The pH optimum of proEPB2 activation and α2-gliadin digestion is 2.4-3.5, which can therefore provide a treatment for Celiac Sprue consisting of oral administration of proEPB2.

[4] = system: rat brush border membrane (BBM) peptidases; format: in vitro ADME; settings: kidney or brush border membranes
Method: To investigate the digestion of gluten, liquid chromatography coupled mass spectroscopy analysis (LC-MS-MS) was utilized to investigate the pathways and associated kinetics of hydrolysis of immunodominant gliadin peptides treated with rat BBM preparations. Because the rodent is an excellent small animal model for human intestinal structure and function, rat BBM was chosen as a suitable model system for these studies.
BBM fractions were prepared from rat small intestinal mucosa as described in Ahnen et al. (1982) J. Biol. Chem. 257, 12129-35. […] No proline aminopeptidase (EC 3.4.11.5) or prolyl endopeptidase activity (PEP, EC 3.4.21.26) activity was detectable (<5 μU/μg). Alkaline phosphatase and sucrase were used as control BBM enzymes with activities of 66 μU/μg and 350 μU/μg, respectively.
BBM fractions were partially purified from the small intestinal mucosa of adult female rats maintained on an ad libitum diet of wheat-based standard rodent chow. Total protein content was determined by a modified method of Lowry with BSA as a standard. Alkaline phosphatase activity was determined with nitrophenyl phosphate. Sucrase activity was measured using a coupled glucose assay. […] PEP activity was determined continuously with 0.4 mM Z-Gly-Pro-pNA in PBS:H2O:dioxane (8:1.2:0.8) at 30° C. One unit is the consumption of 1 μmol substrate per minute.
Proteolysis with the BBM preparation was investigated using the peptide (SEQ ID NO:1) […], a product of chymotryptic digestion of α-9 gliadin (Arentz-Hansen et al. (2000) J. Exp. Med. 191, 603-12). […] It was subjected to BBM digestion, followed by LC-MS-MS analysis. A standard 50 μl digestion mixture contained 100 μM of synthetic peptide, 10 μM tryptophan and Cbz-tryptophan as internal standards, and resuspended BBM preparations with a final protein content of 27 ng/μl and exogenous proteins, as indicated, in phosphate buffered saline. After incubation at 37° C. for the indicated time, the enzymes were inactivated by heating to 95° C. for 3 minutes. The reaction mixtures were analyzed by LC-MS (SpectraSystem, ThermoFinnigan) using a C18 reversed phase column (Vydac 218TP5215, 2.1×150 mm) with water:acetonitrile:formic acid (0.1%):trifluoroacetic acid (0.025%) as the mobile phase (flow: 0.2 ml/min) and a gradient of 10% acetonitrile for 3 minutes, 10-20% for 3 minutes, 20-25% for 21 minutes followed by a 95% wash. Peptide fragments in the mass range of m/z=300-2000 were detected by electrospray ionization mass spectroscopy using a LCQ ion trap and their identities were confirmed by MSMS fragmentation patterns.
BBM fractions were prepared from rat small intestinal mucosa.

[5] = system: gastric and pancreatic proteases; assay: Gastric and pancreatic protease digestion of recombinant α2-gliadin; format: in vitro ADME; settings: extended reaction times
Excerpt: […]. […] No long intermediate is observed to accumulate.

[6] = system: human brush border membrane (BBM); format: in vitro ADME; settings: kidney or brush border membranes, 100 μM
Excerpt: (SEQ ID NO:12) […]

[7] = In vivo perfusion of peptides through rat jejunum; settings: 15-20 cm jejunum segment, residence time 20 min
Method: FIG. 5. In vivo brush border membrane digestion of peptides.
In Vivo Endopeptidase Activity. An adult (female or male) rat was anesthetized and maintained at 36-37° C. during the entire surgical procedure. The peritoneal cavity was opened, and a small incision was made at the beginning and the end of a 15-20 cm jejunum segment. Polyethylene catheters were inserted and secured into the two ends. The input catheter was connected with a pump-driven syringe filled with a solution. The jejunum segment was perfused initially with PBS buffer to remove any residual debris at a flow rate of 0.4 ml/min. Purified peptide solutions (peptide concentration ranges from 25-100 μM) were then perfused at 0.4 ml/min through the jejunum segment with a 10-40 min residence time. In the case of a co-perfusion, the input catheter is connected with two simultaneous syringes, one with a peptide solution and the other with the prolyl endopeptidase solution (concentration ranges from 50-500 μU/μl). Fluid from the output catheter was collected into small centrifuge tubes in dry ice for subsequent analysis. The collected digestive products were analyzed by HPLC on a C18 column.

trypsin = assay: trypsin
chymotrypsin = assay: chymotrypsin
elastase = elastase at a high (non-physiological) concentration of 100 ng/μl
[8] = BBM with captopril in phosphate buffered saline:Tris buffered saline=9:1; settings: rat, up to overnight
[9] = resuspended rat brush border membrane (BBM) preparations in phosphate buffered saline; settings: 37° C.
[10] = rat brush border membrane (BBM) protein preparations, 27 ng/μl, in phosphate buffered saline; settings: 37° C, up to overnight
[11] = system: rabbit lung DCP (Cortex Biochemicals, CA); assay: BBM with exogenous rabbit lung DCP in phosphate buffered saline:Tris buffered saline=9:1; settings: rat, up to overnight

T1 sequence (P25250 134-373): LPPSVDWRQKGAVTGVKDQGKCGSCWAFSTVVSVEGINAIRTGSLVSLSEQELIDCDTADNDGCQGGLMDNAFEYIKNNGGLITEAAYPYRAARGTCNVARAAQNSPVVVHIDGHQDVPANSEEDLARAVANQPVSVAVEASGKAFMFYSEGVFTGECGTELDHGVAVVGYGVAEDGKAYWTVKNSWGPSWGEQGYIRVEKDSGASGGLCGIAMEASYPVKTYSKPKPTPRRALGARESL

fragment found [1]: QLQPFPQPQLP
fragment found [2]: QLQPFPQPQLP; also recorded: QPFPQPQLP
cleaved bond [3]: P-Q, major
Molecule: QLQPFPQPQLPY

Molecule: CC(=O)N[C@@H](CC(C)C)C(=O)N[C@@H](CC(C)C)C(=O)N[C@H](C=O)CCCNC(=N)N [leupeptin]
effect on α2-gliadin digestion by EPB2 (EPB2): inhibits this activity

Molecule: LQLQPFPQPQLPYPQPQLPYPQPQLPYPQPQPF [33-mer]
half-life of digestion [4]: > 20 h
stability toward gastric and pancreatic proteases [5]: remained intact despite prolonged exposure to proteases
Amount of Peptides Digested after 15 hours [6]: <20%
stability in the perfusion experiment [7]: most of the 33-mer gliadin peptide remained intact

not cleaved (trypsin): No proteolysis was detected
not cleaved (chymotrypsin): No proteolysis was detected
cleaved bond (elastase): Q-L
fragment found [8]: PQPQLPYPQPQLP
cleaved bond [9]: P-Y, first_seen
not cleaved [10]: no observed N-terminal processing
fragment found [2]: PQPQLPYPQPQLP
fragment found [11]: PQPQLPYPQPQLP
Molecule: PQPQLPYPQPQLPY
